Key:
Experiment in all cases: relative viability (nuclei count vs DMSO), 5 days (fraction); higher = more cells survive
NCI-H3122 = system: NCI-H3122
How it was run: (§1)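 Dosing by pin tool came one day after lung cancer cell lines were seeded in 1536-well plates, using either one drug or a fixed anchor-drug dose plus five library-drug doses (not always all listed) in √10 steps. After 5 days, nuclei were counted on 4× images. Relative viability is treated-well nuclei count divided by vehicle-well nuclei count, and values are medians of duplicate plates.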

NCI-H522 = system: NCI-H522
How it was run: as §1

LU99A = system: LU99A
How it was run: as §1

NCI-H1650 = system: NCI-H1650
How it was run: as §1

LK-2 = system: LK-2
How it was run: as §1

PC-3 [JPC-3] = system: PC-3 [JPC-3]
How it was run: as §1

NCI-H2170 = system: NCI-H2170
How it was run: as §1

NCI-H2228 = system: NCI-H2228
How it was run: as §1

HCC-827 = system: HCC-827
How it was run: as §1

NCI-H441 = system: NCI-H441
How it was run: as §1

EKVX = system: EKVX
How it was run: as §1

NCI-H1355 = system: NCI-H1355
How it was run: as §1

SW 1573 = system: SW 1573
How it was run: as §1

H3255 = system: H3255
How it was run: as §1

NCI-H1993 = system: NCI-H1993
How it was run: as §1

HOP-62 = system: HOP-62
How it was run: as §1

UMC-11 = system: UMC-11
How it was run: as §1

LXF-289 = system: LXF-289
How it was run: as §1

NCI-H2405 = system: NCI-H2405
How it was run: as §1

LCLC-97TM1 = system: LCLC-97TM1
How it was run: as §1

EPLC-272H = system: EPLC-272H
How it was run: as §1

SK-LU-1 = system: SK-LU-1
How it was run: as §1

ChaGo-K-1 = system: ChaGo-K-1
How it was run: as §1

## CCNC(=O)c1noc(-c2cc(C(C)C)c(O)cc2O)c1-c1ccc(CN2CCOCC2)cc1 [Luminespib] + O=C(CCCCCCC(=O)Nc1ccccc1)NO [Vorinostat] (partner 1 µM)
NCI-H3122; first compound 0.002 µM
  relative viability: 0.991
NCI-H3122; first compound 0.006325 µM
  relative viability: 0.973
NCI-H3122; first compound 0.02 µM
  relative viability: 0.456
NCI-H3122; first compound 0.06325 µM
  relative viability: 0.787
NCI-H3122; first compound 0.2 µM
  relative viability: 0.067
NCI-H522; first compound 0.002 µM
  relative viability: 0.81
NCI-H522; first compound 0.006325 µM
  relative viability: 0.904
NCI-H522; first compound 0.02 µM
  relative viability: 0.772
NCI-H522; first compound 0.06325 µM
  relative viability: 0.607
NCI-H522; first compound 0.2 µM
  relative viability: 0.354
LU99A; first compound 0.002 µM
  relative viability: 0.58
LU99A; first compound 0.006325 µM
  relative viability: 0.45
LU99A; first compound 0.02 µM
  relative viability: 0.263
LU99A; first compound 0.06325 µM
  relative viability: 0.201
LU99A; first compound 0.2 µM
  relative viability: 0.103
NCI-H1650; first compound 0.002 µM
  relative viability: 0.478
NCI-H1650; first compound 0.006325 µM
  relative viability: 0.516
NCI-H1650; first compound 0.02 µM
  relative viability: 0.388
NCI-H1650; first compound 0.06325 µM
  relative viability: 0.139
NCI-H1650; first compound 0.2 µM
  relative viability: 0.135
LK-2; first compound 0.002 µM
  relative viability: 0.305
LK-2; first compound 0.006325 µM
  relative viability: 0.374
LK-2; first compound 0.02 µM
  relative viability: 0.201
LK-2; first compound 0.06325 µM
  relative viability: 0.146
LK-2; first compound 0.2 µM
  relative viability: 0.163
PC-3 [JPC-3]; first compound 0.002 µM
  relative viability: 0.737
PC-3 [JPC-3]; first compound 0.006325 µM
  relative viability: 0.361
PC-3 [JPC-3]; first compound 0.02 µM
  relative viability: 0.491
PC-3 [JPC-3]; first compound 0.06325 µM
  relative viability: 0.381
PC-3 [JPC-3]; first compound 0.2 µM
  relative viability: 0.287
NCI-H2170; first compound 0.002 µM
  relative viability: 0.746
NCI-H2170; first compound 0.006325 µM
  relative viability: 0.698
NCI-H2170; first compound 0.06325 µM
  relative viability: 0.572
NCI-H2170; first compound 0.2 µM
  relative viability: 0.135
NCI-H2228; first compound 0.002 µM
  relative viability: 0.873
NCI-H2228; first compound 0.006325 µM
  relative viability: 0.503
NCI-H2228; first compound 0.02 µM
  relative viability: 0.54
NCI-H2228; first compound 0.06325 µM
  relative viability: 0.143
NCI-H2228; first compound 0.2 µM
  relative viability: 0.15
HCC-827; first compound 0.002 µM
  relative viability: 0.817
HCC-827; first compound 0.006325 µM
  relative viability: 0.884
HCC-827; first compound 0.02 µM
  relative viability: 0.45
HCC-827; first compound 0.06325 µM
  relative viability: 0.797
HCC-827; first compound 0.2 µM
  relative viability: 0.144
NCI-H441; first compound 0.002 µM
  relative viability: 0.784
NCI-H441; first compound 0.006325 µM
  relative viability: 0.823
NCI-H441; first compound 0.02 µM
  relative viability: 0.785
NCI-H441; first compound 0.06325 µM
  relative viability: 0.233
NCI-H441; first compound 0.2 µM
  relative viability: 0.11
EKVX; first compound 0.002 µM
  relative viability: 0.466
EKVX; first compound 0.006325 µM
  relative viability: 0.684
EKVX; first compound 0.02 µM
  relative viability: 0.47
EKVX; first compound 0.06325 µM
  relative viability: 0.669
EKVX; first compound 0.2 µM
  relative viability: 0.572
NCI-H1355; first compound 0.002 µM
  relative viability: 0.581
NCI-H1355; first compound 0.006325 µM
  relative viability: 0.641
NCI-H1355; first compound 0.02 µM
  relative viability: 0.38
NCI-H1355; first compound 0.06325 µM
  relative viability: 0.398
NCI-H1355; first compound 0.2 µM
  relative viability: 0.12
SW 1573; first compound 0.002 µM
  relative viability: 0.742
SW 1573; first compound 0.006325 µM
  relative viability: 0.874
SW 1573; first compound 0.02 µM
  relative viability: 0.212
SW 1573; first compound 0.06325 µM
  relative viability: 0.0903
SW 1573; first compound 0.2 µM
  relative viability: 0.0874
H3255; first compound 0.002 µM
  relative viability: 0.843
H3255; first compound 0.02 µM
  relative viability: 0.625
H3255; first compound 0.06325 µM
  relative viability: 0.745
H3255; first compound 0.2 µM
  relative viability: 0.248
NCI-H1993; first compound 0.002 µM
  relative viability: 0.893
NCI-H1993; first compound 0.006325 µM
  relative viability: 0.793
NCI-H1993; first compound 0.02 µM
  relative viability: 0.552
NCI-H1993; first compound 0.06325 µM
  relative viability: 0.246
NCI-H1993; first compound 0.2 µM
  relative viability: 0.238
HOP-62; first compound 0.002 µM
  relative viability: 0.527
HOP-62; first compound 0.006325 µM
  relative viability: 0.555
HOP-62; first compound 0.02 µM
  relative viability: 0.454
HOP-62; first compound 0.06325 µM
  relative viability: 0.18
HOP-62; first compound 0.2 µM
  relative viability: 0.0867
UMC-11; first compound 0.002 µM
  relative viability: 0.393
UMC-11; first compound 0.006325 µM
  relative viability: 0.402
UMC-11; first compound 0.02 µM
  relative viability: 0.345
UMC-11; first compound 0.06325 µM
  relative viability: 0.302
UMC-11; first compound 0.2 µM
  relative viability: 0.152
LXF-289; first compound 0.002 µM
  relative viability: 0.69
LXF-289; first compound 0.006325 µM
  relative viability: 0.707
LXF-289; first compound 0.02 µM
  relative viability: 1
LXF-289; first compound 0.06325 µM
  relative viability: 0.518
LXF-289; first compound 0.2 µM
  relative viability: 0.147
NCI-H2405; first compound 0.002 µM
  relative viability: 1.11
NCI-H2405; first compound 0.02 µM
  relative viability: 0.884
NCI-H2405; first compound 0.06325 µM
  relative viability: 0.194
NCI-H2405; first compound 0.2 µM
  relative viability: 0.165
LCLC-97TM1; first compound 0.002 µM
  relative viability: 0.555
LCLC-97TM1; first compound 0.006325 µM
  relative viability: 0.545
LCLC-97TM1; first compound 0.06325 µM
  relative viability: 0.0694
LCLC-97TM1; first compound 0.2 µM
  relative viability: 0.0638
EPLC-272H; first compound 0.002 µM
  relative viability: 0.402
EPLC-272H; first compound 0.006325 µM
  relative viability: 0.381
EPLC-272H; first compound 0.02 µM
  relative viability: 0.505
EPLC-272H; first compound 0.06325 µM
  relative viability: 0.0961
EPLC-272H; first compound 0.2 µM
  relative viability: 0.171
SK-LU-1; first compound 0.002 µM
  relative viability: 0.927
SK-LU-1; first compound 0.006325 µM
  relative viability: 0.596
SK-LU-1; first compound 0.02 µM
  relative viability: 0.615
SK-LU-1; first compound 0.06325 µM
  relative viability: 0.262
SK-LU-1; first compound 0.2 µM
  relative viability: 0.211
ChaGo-K-1; first compound 0.002 µM
  relative viability: 0.678
ChaGo-K-1; first compound 0.006325 µM
  relative viability: 0.728
ChaGo-K-1; first compound 0.02 µM
  relative viability: 0.529
ChaGo-K-1; first compound 0.06325 µM
  relative viability: 0.523
ChaGo-K-1; first compound 0.2 µM
  relative viability: 0.23
